This note sets out measurements from patent US10098883B2, “(Aza)pyridopyrazolopyrimidinones and indazolopyrimidinones and their use” (BAYER PHARMA AKTIENGESELLSCHAFT, priority 2013, dated 2018).

For the experiment, the system named is clot lysis (fibrinolysis) in human citrated plasma, tPA-induced. Nature of the experiment: Plasma-based clot lysis assay (5%). Particulars: diluted human citrated plasma (platelet-poor, 5%), fibrinogen 3 μM, CaCl2 10 mM, tPA 0.2 nM, 37° C., OD 405 nm. The format is biochemical. In a few lines:
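Compounds in acetic acid/DMSO added to 5% platelet-poor human citrated plasma supplemented with 3 μM fibrinogen, in 20 mM HEPES, 150 mM NaCl, 0.01% Brij, pH 7. Clotting and lysis started with 10 mM CaCl2 plus 0.2 nM tPA at 37 °C and followed kinetically by OD at 405 nm. IC50 derived against blank-control time course.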

Structures are written as SMILES. Structures can show the parent of a compound that is named as a salt.

The compound `O=C(O)c1cccc2nn3c(C4CCNCC4)cc(=O)[nH]c3c12` [Example 106, 2-oxo-4-(piperidin-4-yl)-1,2-dihydropyrimido[1,2-b]indazole-10-carboxylic acid hydrochloride] displayed an IC50 of 420 nM.

In the case of `O=c1cc(C2CCNCC2)n2nc3cccc(OCC(F)(F)F)c3c2[nH]1` [Example 107, 4-(piperidin-4-yl)-10-(2,2,2-trifluoroethoxy)pyrimido[1,2-b]indazol-2(1H)-one hydrochloride], the IC50 is 34 nM.
